Source: ChEMBL document CHEMBL1148215, “Lipoxygenase inhibitory constituents from Periploca aphylla” (J Nat Prod, 2004)

Experiment: Inhibition of Lipoxygenase 1B

IC50 [µM] | Compound
150 | CC(C)(O)/C=C/C1=CC(=O)[C@H](O)C[C@]1(C)O
19.7 | Oc1cc(O)c2c(c1)O[C@H](c1ccc(O)c(Oc3cc([C@H]4Oc5cc(O)cc(O)c5C[C@@H]4O)ccc3O)c1)[C@@H](O)C2
13.5 | Oc1cc(O)c2c(c1)O[C@H](c1ccc(O)c(Oc3cc(O)c4c(c3)O[C@H](c3ccc(O)c(O)c3)[C@H](O)C4)c1)[C@H](O)C2
22.6 | O=c1cc(-c2ccccc2)oc2cc(O)c(O)c(O)c12 [BAICALEIN]
